One assay concerns C. difficile ATCC 630. The assay can be described thus: microbe, parasite or virus in culture. On the procedure: (§1) The susceptibility of C. difficile isolates to the CPP-PNA conjugates or to the CPP alone was determined in vitro as described before with slight modifications ([43] [–] [45]). Briefly, the CPP-PNA conjugates, the CPP alone, and the antibiotics vancomycin and fidaxomicin were added in triplicate to the first row of ultra-low adhesion 96-well plates (Corning Inc., Corning, NY). A suspension of C. difficile equivalent to 0.5 McFarland solution was added to Mueller-Hilton II broth, which was then added to the ultra-low adhesion plate and then serially diluted. The plates were incubated anaerobically for 48 hours at 37°C. The minimum inhibitory concentration was defined as the lowest concentration of the CPP-PNA conjugate that could inhibit bacterial growth when observed visually.
(§2) The MIC and MBC experiments were repeated twice.

For another assay, the system named is C. difficile 1071. Nature of the assay: MIC/MBC broth microdilution, C. difficile 1071. Type of assay: cell-based, Clostridioides difficile. The note with it: for MIC: broth microdilution, anaerobic 48 hours 37°C, visual, read-out: MIC; for MBC: plated on BHIS agar, read-out: MBC. How it is done: as §1, §2
The subject of a further assay is C. difficile 1079. The assay can be described thus: MIC/MBC broth microdilution, C. difficile 1079. The note with it: for MIC: broth microdilution, anaerobic 48 hours 37°C, visual, read-out: MIC; for MBC: plated on BHIS agar, read-out: MBC. Type of assay: cell-based, Clostridioides difficile. On the procedure:
as §1, §2

Assay [1] concerns Bacteroides fragilis HM 714. The assay can be described thus: MIC gut microflora, Bacteroides fragilis. Type of assay: cell-based. The settings on record: broth microdilution, supplemented BHIS broth, 48 hours, read-out: MIC. How it is done: (§3) The susceptibility of gut microflora strains to the rpoA-TAT conjugate was determined using the broth microdilution assay, as described above. Briefly, bacterial suspensions of Bifidobacterium sp. and Bacteroides sp., in supplemented BHIS broth, and Lactobacilli strains, in MRS broth, were added to ultra-low adhesion 96-well plates and serially diluted. The MIC was recorded after 48 hours.

Assay [2] has as its system rpoA gene (RNA polymerase α subunit) of C. difficile ATCC 630. Nature of the assay: RT-PCR rpoA gene expression. Type of assay: cell-based, Clostridioides difficile. The settings on record: 12 hours, qPCR. On the procedure: (§4) The antisense effect of the rpoA-TAT conjugate was evaluated using a real-time quantitative reverse-transcriptase polymerase chain reaction (RT-PCR) assay ([11], [12]). Briefly, an overnight culture of C. difficile ATCC 630 was diluted in fresh Mueller-Hilton broth II and added in triplicate to low-adhesion microcentrifuge tubes. […] The tubes were incubated anaerobically at 37°C for 12 hours following which the bacterial pellet in each treatment group was collected by centrifugation at 10,000 × g for 10 minutes. Bacteria were subsequently lysed with recombinant lysostaphin (100 µg/mL) in Tris-EDTA (TE) buffer (1 mol/L Tris, 0.5 mol/L ethylenediaminetetraacetate pH 8, nuclease-free H20), and total RNA was extracted using the TRIzol Max Bacterial Isolation Kit as per the manufacturer’s instructions. Turbo DNAse was used to remove genomic DNA contamination from each sample as per the protocol. cDNA was synthesized using the SuperScript III First-Strand Synthesis Kit as per the manufacturer’s instructions. The relative quantification of cDNA for each treatment group was determined using the iTaq Universal SYBR Green One-Step Kit and CFX96 Real-Time PCR Detection System per the manufacturer’s instructions.
(§5) The constitutively expressed tpi gene was used as an internal control. Real-time RT-PCR results were analyzed using the 2^-ΔΔCT method.

Assay [3] has as its system toxin A (tcdA) gene of C. difficile ATCC 630. Nature of the assay: RT-PCR toxin A (tcdA) gene expression. The assay is classed as cell-based, Clostridioides difficile. The note with it: 12 hours, qPCR. How it is done:
as §4, §5

The subject of assay [4] is toxin B (tcdB) gene of C. difficile ATCC 630. Nature of the assay: RT-PCR toxin B (tcdB) gene expression. Type of assay: cell-based, Clostridioides difficile. The note with it: 12 hours, qPCR. How it is done:
as §4, §5

The subject of assay [5] is spoOA gene of C. difficile ATCC 630. Nature of the assay: RT-PCR spoOA gene expression. The assay is classed as cell-based. The note with it: 12 hours, qPCR. How it is done:
as §4, §5

For assay [6], the system named is gut microflora strains (Lactobacillus sp., Bacteroides sp., and Bifidobacterium sp.). Nature of the assay: Growth inhibition of representative gut microflora strains (summary). The assay is classed as cell-based. The note with it: broth microdilution, 48 hours. How it is done:
as §3

Values after ≈ are worked out from the molar mass of the structure shown. Like-named read-outs stand apart in the source and are kept apart here.

Turning to `CCc1c(Cl)c(O)c(Cl)c(O)c1C(=O)O[C@H]1[C@H](O)[C@H](OC)[C@H](OC/C2=C\C=C\C[C@H](O)/C(C)=C/[C@H](CC)[C@@H](O[C@@H]3OC(C)(C)[C@@H](OC(=O)C(C)C)[C@H](O)[C@@H]3O)/C(C)=C/C(C)=C/C[C@@H]([C@@H](C)O)OC2=O)O[C@@H]1C` [Fidaxomicin, fidaxomicin], the MBC with C. difficile ATCC 630 (Clostridioides difficile, ATCC630) was determined as 0.5 µM (≈ 0.529 µg/mL); with C. difficile 1071 (Clostridioides difficile, 1071), 1 µM (≈ 1.06 µg/mL); with C. difficile 1079 (Clostridioides difficile, 1079) it was 2 µM (≈ 2.12 µg/mL). For the same compound, the MIC was 0.5 µM (≈ 0.529 µg/mL) against C. difficile ATCC 630 (Clostridioides difficile, ATCC630, 48 h); 1 µM (≈ 1.06 µg/mL) in the assay with C. difficile 1071 (Clostridioides difficile, 1071); 2 µM (≈ 2.12 µg/mL) in the assay with C. difficile 1079 (Clostridioides difficile, 1079); > 2 µM in assay [1] (Bacteroides fragilis, HM714).

Turning to “GRKKKRRQRRRYK-O-CATGGACAAAAC-NH2 [rpoA-TAT, PNA oligomer antisense to C. difficile rpoA covalently conjugated to the TAT cell penetrating peptide]”, the MBC in the assay on C. difficile ATCC 630 (aliquots of wells without growth plated on BHIS agar, repeated twice) is 8 µM; with C. difficile 1071, 8 µM; in the assay on C. difficile 1079 it was 8 µM. Also, the MIC in the assay with C. difficile ATCC 630 (broth microdilution, Mueller-Hilton II broth, anaerobic 48 hours 37°C, visual, triplicate, repeated twice) is given as 8 µM; with C. difficile 1071, 8 µM; in the assay on C. difficile 1079, 8 µM; in assay [1] it was >32 µM. Also, the “reduction of rpoA gene expression” value in assay [2] (0.125× MIC (1 µM), tpi internal control) was determined as 34%; in assay [2] (0.25× MIC (2 µM)), 46.3%; in [2] (0.5× MIC (4 µM)), 78.2%. The “reduction of toxin A (tcdA) gene expression” value was determined as 41.3% in assay [3] (0.125× MIC (1 µM)), 50.7% in assay [3] (0.25× MIC (2 µM)) and 71.2% in assay [3] (0.5× MIC (4 µM)). Besides, the “reduction of toxin B (tcdB) gene expression” value in assay [4] (0.125× MIC (1 µM)) worked out at 26%; in assay [4] (0.25× MIC (2 µM)), 51.2%; in [4] (0.5× MIC (4 µM)), 74.5%. Moreover, the “reduction of spoOA gene expression” value stood at 45.2% in [5] (0.125× MIC (1 µM)), 58.4% in assay [5] (0.25× MIC (2 µM)) and 68.5% in assay [5] (0.5× MIC (4 µM)). Moreover, the “concentration without growth inhibition of gut microflora strains” value in [6] was > 32 µM.

These data come from paper PMC10581251, “Antisense inhibition of RNA polymerase α subunit of Clostridioides difficile” (Microbiology Spectrum, 2023).
